According to EP4711365A1 (Shanghai Hansoh Biomedical Co., Ltd., priority 2023, dated 2024):

System: Groα secretion by HT-29 cells
Test: Inhibition of Groα secretion by HT-29 cells stimulated with IL-17A (ELISA)
Type: cell-based, Human
Conditions: IL-17A 30 ng/ml, Groα in supernatant
Protocol: Test example 2 Assay for inhibitory effect of compounds of the present invention against Groα secretion by HT-29 cells
Experimental objective: to measure the inhibitory effect of the compounds against Groα secretion by HT-29 cells, thereby evaluating the inhibition of the compounds on IL-17A pathway.
Experimental method: A cell suspension at 50,000 cells/ml was prepared, and 200 µl of the cell suspension was added to each well of a 96-well plate, i.e., 10,000 cells/well. The plate was cultured overnight. In the 96-well V-bottom plate, 5 mM compound solution was serially diluted 3-fold using DMSO, and the compound from each well was diluted 100-fold using a complete culture medium. IL-17A protein (R&D, #BT7955-025/CF) with a stock concentration of 100 µg/ml was diluted 333.33-fold using a complete culture medium. The compound and IL-17A were mixed at a volume ratio of 1:1 and incubated at 37°C for 30 minutes. 50 µl of a mixture of the compound and IL-17A was added to cell wells, and the final concentration of IL-17A protein was 30 ng/ml.
The mixture was incubated in a 37°C, 5% CO2 cell culture incubator for 48 hours. The concentration of Groα in the supernatant was determined by ELISA method using Human Groα Valukin Elisa kit (Biotechne, # VAL139), and the absorbance intensity at 450 nm was measured using a microplate reader (PE, EnVision2105). Data were analysed using GraphPad Prism 8.3.0.
Experimental data processing method: Data were analysed using GraphPad Prism 8.3.0.
Inhibition rate% = [(average value of positive control wells - value of sample wells)/(average value of positive control wells - average value of negative control wells)] × 100%, where the sample wells are wells containing cells plus compounds at different concentration gradients, the positive control wells are wells containing cells plus IL-17A, and the negative control wells are wells containing culture medium plus IL-17A.
Curve fitting: The IC50 value was obtained by curve fitting based on the inhibition rate (%) at each concentration using the log(inhibitor) vs. responseVariable slope (four parameters) in GraphPad Prism 6.0, and the calculation equation was Y = Bottom + (Top-Bottom)/(1+10^((LogIC50-X)*HillSlope)).

SMILES | IC50 (Homo sapiens, HT-29, 48 h) [nM] | also measured
[2H]C([2H])([2H])C([2H])([2H])n1nccc1C(=O)N[C@H](C(=O)Nc1ncc([C@@H](CN2CCC(=C(F)F)CC2)N2CC(F)(F)CCC2=O)s1)[C@H]1CC[C@H](C)CC1 [Example 980] | 5 | 
[2H]C([2H])([2H])OC1(C)CCN(C[C@H](c2cnc(NC(=O)[C@@H](NC(=O)c3ccnn3C([2H])([2H])C([2H])([2H])[2H])[C@H]3CC[C@H](C)CC3)s2)N2CC(F)(F)CCC2=O)CC1 [Example 988] | 8.8 | 
COC[C@H](c1cnc(NC(=O)[C@@H](NC(=O)c2ccnn2C(C)C)[C@H]2CC[C@H](C)CC2)s1)N1CC(F)(F)CNC1=O [Example 327] |  | IC50 (Homo sapiens, 48 hours): 2.5 nM
[2H]C([2H])([2H])n1nccc1C(=O)N[C@H](C(=O)Nc1ncc([C@@H](CN2CCC3(COC3)C2)N2CC(F)(F)CCC2=O)s1)[C@H]1CC[C@H](C)CC1 [Example 1032] | 8 | 
CCn1nccc1C(=O)N[C@H](C(=O)Nc1ncc([C@@H](CN2CCCC2)N2CC(F)(F)CCC2=O)s1)[C@H]1CC[C@H](C)CC1 [Example 1022] | 10 | 
CCn1nccc1C(=O)N[C@H](C(=O)Nc1ncc([C@@H](CN2CCCCC2)N2CC(F)(F)CCC2=O)s1)[C@H]1CC[C@H](C)CC1 [Example 1021] | 8.5 | 
CCn1nccc1C(=O)N[C@H](C(=O)Nc1ncc([C@@H](COC)n2cc(Cl)ccc2=O)s1)[C@H]1CC[C@H](C)CC1 [Example 689] | 5.2 | 
COCCN(C)C[C@H](c1cnc(NC(=O)[C@@H](NC(=O)c2ccnn2C)[C@H]2CC[C@H](C)CC2)s1)N1CC(F)(F)CCC1=O [Example 1024] | 7 | 
C[C@H]1CC[C@H]([C@H](NC(=O)C2(F)CC2)C(=O)Nc2ncc([C@@H](CN3CC4CCC(C3)O4)N3CC(F)(F)CNC3=O)s2)CC1 [Example 743] |  | IC50 (Homo sapiens, 48 hours): 6 nM
CCc1nonc1C(=O)N[C@H](C(=O)Nc1ncc(C(C2CCS(=O)(=O)CC2)n2cc(Cl)ccc2=O)s1)[C@H]1CC[C@H](C)CC1 (stereo partly drawn) [Example 540-1] | 8 | 
[2H]C([2H])([2H])C([2H])([2H])n1nccc1C(=O)N[C@H](C(=O)Nc1ncc(C(COC)n2cc(Cl)ccc2=O)s1)[C@H]1CC[C@H](C)CC1 (stereo partly drawn) [Example 586-1] | 8.4 | 
C[C@H]1CC[C@H]([C@H](NC(=O)C2(F)CC2)C(=O)Nc2ncc([C@@H](CN3CCC(CF)CC3)N3CC(F)(F)CNC3=O)s2)CC1 [Example 767] | 7 | 
COC[C@H](c1cnc(NC(=O)[C@@H](NC(=O)c2ccnn2C(C)C)C2CCCCC2)s1)N1CC(F)(F)CNC1=O [Example 565] | 4 | 
COCCC(c1cnc(NC(=C=O)[C@@H](NC(=O)c2ccnn2C(C)C)C2CCCCC2)s1)N1C[C@@H](C(F)(F)F)NC1=C=O (stereo partly drawn) [Example 564, N-((1S)-1-cyclohexyl-2-((5-(3-methoxy-1-((S)-2-carbonyl-4-(trifluoromethyl)imidazolidin-1-yl)propyl)thiazol-2-yl)amino)-2-carbonylethyl)-1-isopropyl-1H-pyrazole-5-carboxamide] | 5.9 | 
CCn1nccc1C(=O)N[C@H](C(=O)Nc1ncc([C@@H](CN2CCC(COC)CC2)N2CC(F)(F)CCC2=O)s1)[C@H]1CC[C@H](C)CC1 [Example 1036] | 6 | 
CCn1nccc1C(=O)N[C@H](C(=O)Nc1ncc([C@@H](CN(C)CCOC)N2CC(F)(F)CCC2=O)s1)[C@H]1CC[C@H](C)CC1 [Example 1023] | 10 | 
CCn1nccc1C(=O)NC(C(=O)Nc1ncc(C(CN2CCC(OC)C2)N2CC(F)(F)CCC2=O)s1)C1CCC(C)CC1 (stereo not drawn) [Example 650] |  | IC50 (48 hours): 6 nM
[2H]C1([2H])NC(=O)N([C@H](COC)c2cnc(NC(=O)[C@@H](NC(=O)c3ccnn3C(C)C)C3CCC(F)(F)CC3)s2)C([2H])([2H])C1(F)F [Example 259, N-((S)-2-((5-((R)-1-(5,5-difluoro-2-carbonyltetrahydropyrimidin-1(2H)-yl-4,4,6,6-d4)-2-methoxyethyl)thiazol-2-yl)amino)-1-(4,4-difluorocyclohexyl)-2-carbonylethyl)-1-isopropyl-1H-pyrazole-5-carboxamide] | 5.5 | 
[2H]C([2H])([2H])OC1CCN(C[C@H](c2cnc(NC(=O)[C@@H](NC(=O)c3ccnn3C([2H])([2H])C([2H])([2H])[2H])[C@H]3CC[C@H](C)CC3)s2)N2CC(F)(F)CCC2=O)CC1 [Example 986] | 9 | 
[2H]C([2H])([2H])OC1CCN(C[C@H](c2cnc(NC(=O)[C@@H](NC(=O)C3(F)CC3)[C@H]3CC[C@H](C)CC3)s2)N2CC(F)(F)CNC2=O)CC1 [Example 780] |  | IC50 (Homo sapiens, 48 hours): 10 nM
[2H]C([2H])([2H])C([2H])([2H])n1nccc1C(=O)N[C@H](C(=O)Nc1ncc([C@@H](CN2CCOCC2)n2cc(Cl)ccc2=O)s1)[C@H]1CC[C@H](C)CC1 [Example 574] | 5 | 
[2H]C([2H])([2H])n1nccc1C(=O)N[C@H](C(=O)Nc1ncc([C@@H](CN2CCOCC2)N2CC(F)(F)CCC2=O)s1)[C@H]1CC[C@H](C)CC1 [Example 1030] | 7 | 
CCn1nccc1C(=O)NC(C(=O)Nc1ncc(C(CN2CCC(OC)C2)N2CC(F)(F)CCC2=O)s1)C1CCC(C)CC1 (stereo not drawn) [Example 648] | 9.6 | 
[2H]C([2H])([2H])C([2H])([2H])n1nccc1C(=O)N[C@H](C(=O)Nc1ncc([C@@H](CN2CCC3(CCOC3)CC2)N2CC(F)(F)CCC2=O)s1)[C@H]1CC[C@H](C)CC1 [Example 1034] | 6 | 

The remaining compounds from weak to strong by IC50 (Homo sapiens, HT-29, 48 h), led by results:

IC50 (Homo sapiens, HT-29, 48 h) [nM] | SMILES | also measured
4 | [2H]C([2H])([2H])C([2H])([2H])n1nccc1C(=O)NC(C(=O)Nc1ncc(C(CN2CCC3C(C2)C3(F)F)N2CC(F)(F)CCC2=O)s1)C1CCC(C)CC1 (stereo not drawn) [Example 970] | 
4 | [2H]C([2H])([2H])C([2H])([2H])n1nccc1C(=O)N[C@H](C(=O)Nc1ncc([C@@H](CN2CCC(F)CC2)N2CC(F)(F)CCC2=O)s1)[C@H]1CC[C@H](C)CC1 [Example 919] | 
3.8 | CCn1nccc1C(=O)N[C@H](C(=O)Nc1ncc([C@@H](CN(C)C)n2cc(Cl)ccc2=O)s1)[C@H]1CC[C@H](C)CC1 [Example 644] | 
3.5 | [2H]C([2H])([2H])C([2H])([2H])n1nccc1C(=O)N[C@H](C(=O)Nc1ncc([C@@H](CN2CCC(F)(F)CC2)N2CC(F)(F)CCC2=O)s1)[C@H]1CC[C@H](C)CC1 [Example 913] | 
3.2 | CCn1nccc1C(=O)N[C@H](C(=O)Nc1ncc([C@@H](CN2C[C@@H](C)OC[C@H]2C)N2CC(F)(F)CCC2=O)s1)[C@H]1CC[C@H](C)CC1 [Example 863] | 
3 | [2H]C([2H])([2H])C([2H])([2H])n1nccc1C(=O)N[C@H](C(=O)Nc1ncc([C@@H](CN2CCO[C@H](CF)C2)N2CC(F)(F)CCC2=O)s1)[C@H]1CC[C@H](C)CC1 [Example 820, N-((S)-2-((5-((R)-1-(5,5-difluoro-2-oxopiperidin-1-yl)-2-((S)-2-(fluoromethyl)morpholino)ethyl)thiazol-2-yl)amino)-1-((1r,4S)-4-methylcyclohexyl)-2-oxoethyl)-1-(ethyl-d5)-1H-pyrazole-5-carboxamide] | 
2.7 | [2H]C([2H])([2H])C([2H])([2H])n1nccc1C(=O)N[C@H](C(=O)Nc1ncc([C@@H](CN2C[C@@H](C)OC[C@H]2C)N2CC(F)(F)CCC2=O)s1)[C@H]1CC[C@H](C)CC1 [Example 862, N-((S)-2-((5-((R)-1-(5,5-difluoro-2-oxopiperidin-1-yl)-2-((2R,5R)-2,5-dimethylmorpholino)ethyl)thiazol-2-yl)amino)-1-((1r,4S)-4-methylcyclohexyl)-2-oxoethyl)-1-(ethyl-d5)-1H-pyrazole-5-carboxamide] | 
2.5 | CCn1nccc1C(=O)N[C@H](C(=O)Nc1ncc([C@@H](CN2CCC(OC)CC2)n2cc(Cl)ccc2=O)s1)[C@H]1CC[C@H](C)CC1 [Example 634] | 
2.5 | CCn1nccc1C(=O)N[C@H](C(=O)Nc1ncc([C@@H](CN2CCC3(CC2)OCCO3)n2cc(Cl)ccc2=O)s1)[C@H]1CC[C@H](C)CC1 [Example 1020] | 
2 | [2H]C([2H])([2H])C([2H])([2H])n1nccc1C(=O)N[C@H](C(=O)Nc1ncc([C@@H](CN2C[C@H](C)OC[C@@H]2C)N2CC(F)(F)CCC2=O)s1)[C@H]1CC[C@H](C)CC1 [Example 860, N-((S)-2-((5-((R)-1-(5,5-difluoro-2-oxopiperidin-1-yl)-2-((2S,5S)-2,5-dimethylmorpholino)ethyl)thiazol-2-yl)amino)-1-((1r,4S)-4-methylcyclohexyl)-2-oxoethyl)-1-(ethyl-d5)-1H-pyrazole-5-carboxamide] | 
2 | C[C@H]1CC[C@H]([C@H](NC(=O)C2(F)CC2)C(=O)Nc2ncc([C@@H](CN3CCC4(CC3)CC4(F)F)N3CC(F)(F)CNC3=O)s2)CC1 [Example 1016] | 
1.6 | CCn1nccc1C(=O)N[C@H](C(=O)Nc1ncc([C@@H](CN2CCC(C(=O)O)CC2)n2cc(Cl)ccc2=O)s1)[C@H]1CC[C@H](C)CC1 [Example 663] | 
